Entries after “also recorded” stand apart in the source; their conditions may differ.

This is an account of results in patent US7186879B2, “Screening systems and methods for identifying modulators of xenobiotic metabolism” (Baylor College of Medicine, priority 2001, dated 2007).

One series deals with T1, murine CAR receptor (Mus musculus, UniProt O35627, M138L).
T1 sequence (O35627 1-358 M138L): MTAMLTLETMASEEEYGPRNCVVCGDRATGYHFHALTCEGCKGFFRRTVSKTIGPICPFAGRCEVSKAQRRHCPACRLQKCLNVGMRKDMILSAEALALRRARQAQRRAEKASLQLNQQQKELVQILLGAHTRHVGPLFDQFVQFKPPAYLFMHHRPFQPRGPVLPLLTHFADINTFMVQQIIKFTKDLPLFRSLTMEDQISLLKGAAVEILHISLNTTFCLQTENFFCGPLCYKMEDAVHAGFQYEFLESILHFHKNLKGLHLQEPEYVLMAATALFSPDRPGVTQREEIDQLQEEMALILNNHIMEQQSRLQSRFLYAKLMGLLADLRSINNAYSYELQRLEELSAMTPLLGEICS
The conditions noted are these: cited from earlier work.

Series [1] relates to wild-type and CAR −/− mice. Particulars: acute treatment (Heubel et al.); cited from earlier work.
Series [2] concerns the target T2, human CAR (Homo sapiens, UniProt Q14994).
T2 sequence (Q14994 1-348 isoform Q14994-2): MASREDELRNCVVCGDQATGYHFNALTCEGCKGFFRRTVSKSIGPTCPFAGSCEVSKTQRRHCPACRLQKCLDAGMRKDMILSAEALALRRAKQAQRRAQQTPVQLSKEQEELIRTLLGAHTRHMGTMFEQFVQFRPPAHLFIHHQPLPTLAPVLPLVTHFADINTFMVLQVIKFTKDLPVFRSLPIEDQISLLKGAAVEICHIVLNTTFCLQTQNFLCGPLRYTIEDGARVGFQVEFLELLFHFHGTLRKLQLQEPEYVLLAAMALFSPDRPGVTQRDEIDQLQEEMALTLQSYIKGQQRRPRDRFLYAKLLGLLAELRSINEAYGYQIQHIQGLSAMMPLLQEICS
Briefly: Northern blot of gene induction in CAR humanized mice. The conditions noted are these: CAR humanized animals.
Description: CAR humanized mice (n=3) were treated with 500 mg/kg APAP or vehicle. After two hours, total liver RNA was prepared and subjected to Northern blot analysis with indicated probes.

The target in series [3] is T2, human CAR. Put plainly: Sensitivity of CAR humanized mice to APAP, serum ALT. Further details: expressed in transfected cells; host or cells: liver of transgenic C57BL/6 mice (line 6210, albumin promoter), crossed onto the murine CAR -/- background. Particulars: CAR humanized mice pretreated three days, APAP 250 mg/kg. The protocol:
FIG. 13 illustrates the sensitivity of CAR humanized mice to APAP. CAR humanized mice (n=3) were pretreated with phenobarbital (PB) or vehicle alone for three days and administered a 250 mg/kg dose of APAP by intraperitoneal injection. Serum was collected and alanine aminotransferase (ALT) levels were measured after 24 hours.

For `Clc1cnc(Oc2ccc(Oc3ncc(Cl)cc3Cl)cc2)c(Cl)c1` [TCPOBOP, 1,4-bis[2-(3,5-dichloropyridyloxy)]benzene], at murine CAR receptor, the “activity on murine CAR receptor” value is on record as “agonist ligand; also recorded: activate murine CAR”. Moreover, the “increase in liver mass relative to total body mass” value in series [1] is “up to 2 fold”.

As for `CCC1(c2ccccc2)C(=O)NC(=O)NC1=O` [PB, phenobarbital], the “expression of CYP1A2 and CYP3A11 mRNAs” value on human CAR [2] was “induced expression”. Moreover, the “sensitivity to APAP” value on human CAR [3] is reported as “increased sensitivity to APAP”.
